These results are taken from publication PMC6095626, “Screening of the Pathogen Box for inhibitors with dual efficacy against Giardia lamblia and Cryptosporidium parvum” (PLoS Neglected Tropical Diseases, 2018).

Read-outs that look alike come from different tables or passages of the source. Bounds are passed on as bounds.

Series [1] deals with G. lamblia trophozoites (luciferase expressing, WBC6). Nature of the series: microbe, parasite or virus in culture. The series is classed as cell-based, Giardia lamblia. As to conditions: for Giardia (16 uM) Mean % inhibition: initial Pathogen Box screen, single concentration 16 µM, inhibition compared to DMSO wells; for EC50: read-out: G. lamblia EC50. The method, boiled down: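 Luciferase-expressing WBC6 trophozoites plated at 250,000 cells/mL, compounds added 1:1, incubated anaerobically (GasPak bags) at 37 °C for 24 h; viability read by bioluminescence, with duplicate plates counted on a MOXI Z cell counter. Metronidazole control serially diluted 1:2 from 40 μM.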

The test system of series [2] is C. parvum (UGA1 Nluc expressing strain in HCT-8 cells). Kind of series: microbe, parasite or virus in culture. It is filed as cell-based, Cryptosporidium parvum. As to conditions: for C. parvum cell growth inhibition in the initial screen: 10 μM; for Crypto (10 uM) Mean % inhibition: initial Pathogen Box screen, single concentration 10 µM, inhibition compared to DMSO wells. The procedure, abridged: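 HCT-8 monolayers grown 48 h to 90–100% confluence, treated with compound at 10 μM or serial dilutions, then infected with bleach-treated UGA1 Nluc C. parvum oocysts.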

The test system of the next series is C. parvum. As to conditions: cited from earlier work.
The nature of series [3]: Cytotoxicity against HepG2 cells, AlamarBlue viability assay, 48 hours. It is filed as cell-based, human. The note with it: human, HepG2 cells, read-out: HepG2 CC50 (this study). An excerpt:
(§1) Mammalian cell cytotoxicity assay data performed on HepG2 (human hepatocellular carcinoma) cells and described as CC20 or CC50 values are provided in supporting documentation that accompanied the Pathogen Box for approximately three quarters of the 400 compounds. However, no details of the assay conditions or parameters were provided. In this study, selected compounds were further tested for cytotoxicity against HepG2 cells as previously described. Briefly, cells were exposed to two-fold serial dilutions of compounds for 48 hours and cytotoxicity was assessed using the AlamarBlue® viability assay (Thermo Fisher Scientific, Waltham, MA). Each dilution was assayed in quadruplicate and concentrations causing 50% growth inhibition (CC50) were calculated by non-linear regression using GraphPad Prism 7 software (GraphPad Software, San Diego, CA).
For orientation: Resazurin is reduced to fluorescent resorufin, in cell work by metabolically active cells.

In series [4] the test system is HepG2 cells. The note with it: read-out: HepG2 CC50 (literature values), cited from earlier work.
In series [5] the test system is HepG2 cells. Nature of the series: Cytotoxicity against HepG2 cells, AlamarBlue viability assay, 48 hours. The series is classed as cell-based, human. The note with it: read-out: HepG2 CC50 (this study).
Excerpt: as §1

Another series has as its system HCT-8 host cells. Nature of the series: Toxicity to HCT-8 host cells seen in the C. parvum assay. It is filed as cell-based. The note with it: no reliable C. parvum EC50 could be determined. As for the experimental part: Growth inhibition and EC50 determination assays were performed using UGA1 Nluc expressing C. parvum strain in HCT-8 cells (ATCC^©, Manassas, VA) as previously described. HCT-8 cells were inoculated onto 96-well plates and allowed to grow for 48 hours to 90–100% confluence and then treated with single concentration (10 μM) or serially diluted compounds prior to oocyst infection. C. parvum oocysts were incubated for 10 minutes in 10% bleach at room temperature and then washed with DPBS. One thousand oocysts per well were applied to the 96 well plates with RPMI-1640 medium supplemented with 10% horse serum and 1% penicillin/streptomycin at the same time as compound addition and incubated for 48 hours. The cell monolayers were lysed for 1 hour before adding Nano-Glo® luciferase reagent (Promega, Madison, WI), and measuring relative luminescence units (RLU) in an EnVision Plate Reader (Perkin Elmer, Waltham, MA). Several parameters, including reproducibility and reliability, were previously evaluated to optimize this assay for low and high-throughput (HTP) screening of small molecule compounds against C. parvum. EC50 values were calculated using Prism 7 software (GraphPad Software, San Diego, CA).

Another series relates to G. lamblia. The note with it: read-out: G. lamblia EC50 (literature), cited from earlier work.
A further series relates to G. lamblia trophozoites. Nature of the series: G. lamblia growth inhibition counted with MOXI Z Mini Automated Cell Counter. The series is classed as cell-based. The note with it: Giardia duodenalis, 24 h, read-out: G. lamblia EC50 by MOXI coulter counter. The procedure:
Preliminary effective concentration that causes 50% growth inhibition (EC50) assays were performed on the luciferase expressing and wild-type (control) G. lamblia cells to establish a correlation between manually counted cells and the bioluminescent signal read out. Trophozoites were harvested by chilling cultures on ice for 30 minutes and plated by adding 150 μL per well at a concentration of 250,000 cells/mL. Metronidazole (Sigma, St. Louis, MO) was used as a control and was serially diluted 1:2 from 40 μM to 0.04 μM and 150 μL was added to the 150 μL of the G. lamblia trophozoites. Plates were covered in plastic low-evaporation lids, sealed in individual anaerobic BD GasPak Bio-Bags (Becton Dickinson, San Jose, CA) and incubated at 37 °C for 24 hours. Plates were then iced for 30 minutes and 250 μL of resuspended cells were transferred to a solid white 96-well plate and 50 μL of 10 mg/mL D-luciferin was added to a final reaction concentration of 1.67 mg/mL. Plates were incubated on a plate shaker at 37 °C for 30 minutes and read on an EnVision Plate Reader. A duplicate plate was concurrently set up and assayed using a MOXI Z Mini Automated Cell Counter Kit (Orflo, Ketchum, ID). Results obtained from the bioluminescence assay and the MOXI counter data were compared to evaluate their correlation to each another. […]

The mark [6] stands for this setting: IOWA strain (48h), read-out: C. parvum EC50 (literature).
Setting [7] is: luciferase expressing G. lamblia trophozoites, 24 hours, D-luciferin bioluminescence read-out.

In the case of `CC(C)C(Oc1cccc2ccccc12)C(=O)O` (centres unmarked) [MMV676191], the “Giardia (16 uM) Mean % inhibition” value in series [1] amounted to 9%. The “C. parvum cell growth inhibition in the initial screen” value in series [2] (48 hours) stood at 36%. In addition, the EC50 in the series on C. parvum (ref MMV Pathogen_Box_Activity_Biological_Data_Smiles (https://www.pathogenbox.org/about-pathogen-box/composition), read-out: C. parvum EC50 reported in Pathogen Box datasheet) was more than 10 µM.
Take `CC(C)/N=c1\cc2n(-c3ccc(Cl)cc3)c3ccccc3nc-2cc1Nc1ccc(Cl)cc1` [MMV687800, Clofazimine, reference compound]: the half-maximal effective concentration (EC50) was 1.79 ± 0.23 µM in series [1] (Giardia duodenalis, 24 h); 3.3 µM in series [2] (Cryptosporidium parvum, HCT-8, 48 h, read-out: C. parvum EC50, Nluc C. parvum in HCT-8 cells, 48 hours); 3.33 ± 1.2 µM in series [2] (read-out: C. parvum EC50, Nluc C. parvum in HCT-8 cells, 48 hours); 0.015 µM in the series on C. parvum (setting [6]). For the same compound, the inhibition at 16 µM in series [1] (Giardia duodenalis, read-out: Giardia (16 uM) Mean % inhibition) was found to be 98%. The inhibition at 10 µM in series [2] (Cryptosporidium parvum, HCT-8, read-out: Crypto (10 uM) Mean % inhibition) stood at 82%. Moreover, the CC50 at 48 h in [3] is 26.4 µM. The cytotoxic concentration (CC50) in the series on HepG2 cells [4] was more than 20 µM.
Turning to `O=C(Nc1ccc(C(F)(F)F)c(C(F)(F)F)c1)c1cc(Cl)ccc1O` [MMV687807], the “Giardia (16 uM) Mean % inhibition” value in series [1] came to 97%. In addition, the concentration for a half-maximal effect (EC50) in [1] (setting [7]) was 0.51 ± 0.06 µM. Further, in [2], the “Crypto (10 uM) Mean % inhibition” value is reported as 90%. Also, the CC50 was less than 5 µM in the series with HepG2 cells [5] and 0.7 µM in the series on HepG2 cells [4] (ref Pathogen_Box_Activity_Biological_Data_ Structure & Smiles (https://www.pathogenbox.org/about-pathogen-box/composition)). For the same compound, the “Toxicity to HCT-8 host cells in the C. parvum assay” value with HCT-8 host cells is “too toxic to the HCT-8 host cells”.
As for `CCOc1ccc2cc(-c3nn(CC4CCN(C)CC4)c4ncnc(N)c34)ccc2c1` [MMV688854, reference compound], the “Giardia (16 uM) Mean % inhibition” value in [1] was 9%. In series [2] (48 hours), the “C. parvum cell growth inhibition in the initial screen” value worked out at 79%. The EC50 in the series with C. parvum (same strain of Nluc C. parvum, read-out: C. parvum EC50 (previously shown)) is 2.7 µM.
On to `CC(=O)OCC1OC([S-])C(OC(C)=O)C(OC(C)=O)C1OC(C)=O.CCP(CC)CC.[Au+]` (centres unmarked) [MMV688978, Auranofin, reference compound], for which the “Giardia (16 uM) Mean % inhibition” value in series [1] came out at 98%. For the same compound, the EC50 in series [1] (setting [7]) was 3.74 ± 0.46 µM; in [2] (Nluc C. parvum in HCT-8 cells, 48 hours, read-out: C. parvum EC50), 3.34 ± 2.7 µM; in the series on G. lamblia (WB strain (48h)), 4 to 6 µM; with C. parvum (setting [6]), 2 µM. Also, the “Crypto (10 uM) Mean % inhibition” value in series [2] is listed as 93%. In addition, the figures for the CC50 with HepG2 cells [5] and in the series on HepG2 cells [4] were 0.5 µM and 4.5 µM, respectively.
For the compound `Cc1ncc([N+](=O)[O-])n1CCO` [metronidazole, Metronidazole], the EC50 is 2.24 µM in [1] (Giardia duodenalis, 24 h); 1.06 µM in the series with G. lamblia trophozoites; approximately 5 µM in the series on G. lamblia; 8.65 µM in the series on G. lamblia (reference strain WB (48h)).

The EC50 is the concentration giving half of the maximal effect. Usually inhibition stands for the percentage by which the read-out fell short of the control. The term CC50 denotes the concentration giving 50% cytotoxicity.
